Results on three compounds are retold here after patent publication US6809065B2, “Herbicide containing substituted pyrazole derivative as active ingredient” (SDS Biotech K.K., priority 2001, dated 2004).

Series [1] relates to rice (Oryza sative, variety: Koshihikari). Nature of the series: Paddy field treatment (Test Example 3), crop. It counts as in vivo, Oryza sativa. As to conditions: transplanted rice two-leaf period, water surface treatment 10th day after transplantation, 1 kg active ingredient per hectare, evaluated 21st day, lower index = higher safety. The procedure: (§1) In the above evaluation criteria, the term “herbicidal effect” means evaluation to the objective weeds, and a higher index of the evaluation criteria means higher herbicidal effect on the objective weeds. On the other hand, a lower index of the evaluation criteria for the crops means higher safety to the crops. A plastic pot of 130 cm^2 was filled with paddy soil, and soil puddling was carried out to adjust the submerged depth to 4 cm. Then, seeds of Echinochloa crusgalli, Monochoria vaginalis, Ammannia multiflora and Scirpus juncoides were sowed, and rice (Oryza […], variety: Koshihikari) of two-leaf period was transplanted by 2 rice plants of 1 stub per pot at a depth of 3 cm. On the 10th day after the transplantation, a wettable powder composition was prepared in accordance with Formulation Example 1, diluted with water in such an amount that the amount of the active ingredient became 1 kg per hectare, and then dropped to diffuse on the water surface. On the 21st day after the dropping, observation and evaluation were carried out according to the aforesaid criteria.

The subject of series [2] is soybean (Glycine max). Nature of the series: Upland soil treatment (Test Example 2), crop. The class given is in vivo. Conditions: soil surface treatment next day after sowing, 1 kg active ingredient per hectare, evaluated 21st day, lower index = higher safety. The text has this:
(§2) In the above evaluation criteria, the term “herbicidal effect” means evaluation to the objective weeds, and a higher index of the evaluation criteria means higher herbicidal effect on the objective weeds. On the other hand, a lower index of the evaluation criteria for the crops means higher safety to the crops. A plastic pot of 130 cm^2 was filled with upland soil. Then, seeds of weeds, namely, Setaria viridis, Digitaria adscendens, Chenopodium album and Stellaria media, and seeds of crops, namely, soybean (Glycine max) and wheat (Triticum aestivum), were sowed and covered with soil of about 1 cm thick. On the next day after the sowing, a wettable powder composition was prepared in accordance with Formulation Example 1, diluted with water in such an amount that the amount of the active ingredient became 1 kg per hectare, and then uniformly applied to the soil surface. On the 21st day after the application, observation and evaluation were carried out according to the aforesaid criteria.

In series [3] the test system is wheat (Triticum aestivum). Nature of the series: Upland soil treatment (Test Example 2), crop. It counts as in vivo. As to conditions: soil surface treatment next day after sowing, 1 kg active ingredient per hectare, evaluated 21st day, lower index = higher safety.
Excerpt: as §2

For series [4], the system named is Digitaria adscendens. Briefly: Upland soil treatment (Test Example 2). The class given is in vivo. As to conditions: soil surface treatment next day after sowing, wettable powder, 1 kg active ingredient per hectare, evaluated 21st day after application.
Excerpt: as §2

In series [5] the test system is Setaria viridis. Briefly: Upland soil treatment (Test Example 2). The class given is in vivo. As to conditions: soil surface treatment next day after sowing, wettable powder, 1 kg active ingredient per hectare, evaluated 21st day after application.
Excerpt: as §2

Series [6] concerns Stellaria media. Nature of the series: Upland soil treatment (Test Example 2). The class given is in vivo. Conditions: soil surface treatment next day after sowing, wettable powder, 1 kg active ingredient per hectare, evaluated 21st day after application.
Excerpt: as §2

Series [7] concerns Chenopodium album. Briefly: Upland soil treatment (Test Example 2). The class given is in vivo. Conditions: soil surface treatment next day after sowing, wettable powder, 1 kg active ingredient per hectare, evaluated 21st day after application.
Excerpt: as §2

Series [8] relates to Echinochloa spp. Nature of the series: Paddy field treatment (Test Example 3). The class given is in vivo, Echinochloa crusgalli. Conditions: paddy pot, submerged 4 cm, dropped on water surface 10th day after transplantation, 1 kg active ingredient per hectare, evaluated 21st day. How it is done: as §1
Series [9] concerns soybean (Glycine max). Nature of the series: Upland field foliage treatment (Test Example 1), crop. As to conditions: foliage treatment 14th day after sowing, 1 kg active ingredient per hectare, evaluated 21st day, lower index = higher safety. The class given is in vivo. The text has this:
(§3) In the above evaluation criteria, the term “herbicidal effect” means evaluation to the objective weeds, and a higher index of the evaluation criteria means higher herbicidal effect on the objective weeds. On the other hand, a lower index of the evaluation criteria for the crops means higher safety to the crops. A plastic pot of 130 cm^2 was filled with upland soil. Then, seeds of weeds, namely, Setaria viridis, Digitaria adscendens, Chenopodium album and Stellaria media, and seeds of crops, namely, soybean (Glycine max) and wheat (Triticum aestivum), were sowed and covered with soil of about 1 cm thick. On the 14th day after the sowing, a wettable powder composition was prepared in accordance with Formulation Example 1, diluted with water in such an amount that the amount of the active ingredient became 1 kg per hectare, and then uniformly applied to the plant leaf surfaces. On the 21st day after the application, observation and evaluation were carried out according to the aforesaid criteria.

Series [10] concerns wheat (Triticum aestivum). Described as above. It counts as in vivo. Conditions: foliage treatment 14th day after sowing, 1 kg active ingredient per hectare, evaluated 21st day, lower index = higher safety.
Excerpt: as §3

The subject of series [11] is Digitaria adscendens. Nature of the series: Upland field foliage treatment (Test Example 1). The class given is in vivo. Conditions: foliage treatment 14th day after sowing, wettable powder, 1 kg active ingredient per hectare, evaluated 21st day after application.
Excerpt: as §3

For series [12], the system named is Setaria viridis. Briefly: Upland field foliage treatment (Test Example 1). The class given is in vivo. As to conditions: foliage treatment 14th day after sowing, wettable powder, 1 kg active ingredient per hectare, evaluated 21st day after application.
Excerpt: as §3

In series [13] the test system is Stellaria media. Nature of the series: Upland field foliage treatment (Test Example 1). It counts as in vivo. As to conditions: foliage treatment 14th day after sowing, wettable powder, 1 kg active ingredient per hectare, evaluated 21st day after application.
Excerpt: as §3

The subject of series [14] is Chenopodium album. Briefly: Upland field foliage treatment (Test Example 1). The class given is in vivo. As to conditions: foliage treatment 14th day after sowing, wettable powder, 1 kg active ingredient per hectare, evaluated 21st day after application.
Excerpt: as §3

Series [15] deals with Scirpus juncoides. Briefly: Paddy field treatment (Test Example 3). It counts as in vivo. As to conditions: paddy pot, submerged 4 cm, dropped on water surface 10th day after transplantation, 1 kg active ingredient per hectare, evaluated 21st day. How it is done:
as §1

Series [16] concerns Ammannia multiflora. Briefly: Paddy field treatment (Test Example 3). The class given is in vivo. Conditions: paddy pot, submerged 4 cm, dropped on water surface 10th day after transplantation, 1 kg active ingredient per hectare, evaluated 21st day. The procedure:
as §1

Series [17] relates to Monochoria vaginalis. Briefly: Paddy field treatment (Test Example 3). Conditions: paddy pot, submerged 4 cm, dropped on water surface 10th day after transplantation, 1 kg active ingredient per hectare, evaluated 21st day. It counts as in vivo. How it is done: as §1

Molecules are shown by their SMILES.

As for `COC=C(Cn1nc(-c2cc(Cl)ccc2Cl)cc1C)C(=O)OC` [Compound 8], the “Herbicidal activity Oryza sativa” value in series [1] is 0 (herbicidal effect of not less than 0% by weight and less than 10% by weight). Besides, the “Herbicidal activity Glycine max” value was 0 (herbicidal effect of not less than 0% by weight and less than 10% by weight) in [2]; 0 (herbicidal effect of not less than 0% by weight and less than 10% by weight) in series [9]. Also, the “Herbicidal activity Triticum aestivum” value in series [3] was 0 (herbicidal effect of not less than 0% by weight and less than 10% by weight); in series [10] it was 0 (herbicidal effect of not less than 0% by weight and less than 10% by weight). Also, the “Herbicidal activity Digitaria adscendens” value in [4] was 4 (herbicidal effect of not less than 70% by weight and less than 90% by weight); in [11] it was 5 (herbicidal effect of not less than 90% by weight). Further, the “Herbicidal activity Setaria viridis” value in series [5] is 4 (herbicidal effect of not less than 70% by weight and less than 90% by weight); in [12] it was 4 (herbicidal effect of not less than 70% by weight and less than 90% by weight). For the same compound, the “Herbicidal activity Stellaria media” value in series [6] is 4 (herbicidal effect of not less than 70% by weight and less than 90% by weight); in [13], 5 (herbicidal effect of not less than 90% by weight). Moreover, the “Herbicidal activity Chenopodium album” value is 4 (herbicidal effect of not less than 70% by weight and less than 90% by weight) in series [7]; 5 (herbicidal effect of not less than 90% by weight) in series [14]. Moreover, the “Herbicidal activity Echinochloa spp.” value in series [8] was 4 (herbicidal effect of not less than 70% by weight and less than 90% by weight). Further, in [15], the “Herbicidal activity Scirpus juncoides” value was 4 (herbicidal effect of not less than 70% by weight and less than 90% by weight). Moreover, the “Herbicidal activity Ammannia multiflora” value in series [16] is 5 (herbicidal effect of not less than 90% by weight). Further, in series [17], the “Herbicidal activity Monochoria vaginalis” value is reported as 5 (herbicidal effect of not less than 90% by weight).
With `COC=C(Cn1nc(-c2ccccc2)c(C)c1C)C(=O)OC` [Compound 33], the “Herbicidal activity Oryza sativa” value in [1] is 1 (herbicidal effect of not less than 10% by weight and less than 30% by weight). Besides, the “Herbicidal activity Glycine max” value in series [2] was 0 (herbicidal effect of not less than 0% by weight and less than 10% by weight); in series [9], 0 (herbicidal effect of not less than 0% by weight and less than 10% by weight). The “Herbicidal activity Triticum aestivum” value was 0 (herbicidal effect of not less than 0% by weight and less than 10% by weight) in series [3]; 0 (herbicidal effect of not less than 0% by weight and less than 10% by weight) in series [10]. Also, the “Herbicidal activity Digitaria adscendens” value in series [4] was 4 (herbicidal effect of not less than 70% by weight and less than 90% by weight); in series [11], 5 (herbicidal effect of not less than 90% by weight). In addition, the “Herbicidal activity Setaria viridis” value in series [5] was 4 (herbicidal effect of not less than 70% by weight and less than 90% by weight); in series [12], 4 (herbicidal effect of not less than 70% by weight and less than 90% by weight). In addition, the “Herbicidal activity Stellaria media” value was 4 (herbicidal effect of not less than 70% by weight and less than 90% by weight) in series [6]; 5 (herbicidal effect of not less than 90% by weight) in series [13]. In addition, the “Herbicidal activity Chenopodium album” value in series [7] is 4 (herbicidal effect of not less than 70% by weight and less than 90% by weight); in series [14], 5 (herbicidal effect of not less than 90% by weight). Further, the “Herbicidal activity Echinochloa spp.” value in [8] is on record as 5 (herbicidal effect of not less than 90% by weight). Besides, in [15], the “Herbicidal activity Scirpus juncoides” value is given as 5 (herbicidal effect of not less than 90% by weight). In addition, the “Herbicidal activity Ammannia multiflora” value in series [16] is on record as 5 (herbicidal effect of not less than 90% by weight). For the same compound, the “Herbicidal activity Monochoria vaginalis” value in [17] is listed as 5 (herbicidal effect of not less than 90% by weight).
As to `COC=C(Cn1nc(-c2cccc(C)c2)cc1C)C(=O)OC` [Compound 3], in series [1], the “Herbicidal activity Oryza sativa” value was 0 (herbicidal effect of not less than 0% by weight and less than 10% by weight). For the same compound, the “Herbicidal activity Glycine max” value was 0 (herbicidal effect of not less than 0% by weight and less than 10% by weight) in series [2]; 0 (herbicidal effect of not less than 0% by weight and less than 10% by weight) in [9]. In addition, the “Herbicidal activity Triticum aestivum” value in series [3] was 0 (herbicidal effect of not less than 0% by weight and less than 10% by weight); in series [10] it was 0 (herbicidal effect of not less than 0% by weight and less than 10% by weight). Besides, the “Herbicidal activity Digitaria adscendens” value was 4 (herbicidal effect of not less than 70% by weight and less than 90% by weight) in [4]; 4 (herbicidal effect of not less than 70% by weight and less than 90% by weight) in series [11]. In addition, the “Herbicidal activity Setaria viridis” value in [5] was 4 (herbicidal effect of not less than 70% by weight and less than 90% by weight); in series [12], 5 (herbicidal effect of not less than 90% by weight). For the same compound, the “Herbicidal activity Stellaria media” value in series [6] was 4 (herbicidal effect of not less than 70% by weight and less than 90% by weight); in series [13], 5 (herbicidal effect of not less than 90% by weight). For the same compound, the “Herbicidal activity Chenopodium album” value was 4 (herbicidal effect of not less than 70% by weight and less than 90% by weight) in series [7]; 5 (herbicidal effect of not less than 90% by weight) in series [14]. In series [8], the “Herbicidal activity Echinochloa spp.” value is 3 (herbicidal effect of not less than 50% by weight and less than 70% by weight). Also, in series [15], the “Herbicidal activity Scirpus juncoides” value is 3 (herbicidal effect of not less than 50% by weight and less than 70% by weight). For the same compound, the “Herbicidal activity Ammannia multiflora” value in [16] is 4 (herbicidal effect of not less than 70% by weight and less than 90% by weight). Also, the “Herbicidal activity Monochoria vaginalis” value in series [17] is 4 (herbicidal effect of not less than 70% by weight and less than 90% by weight).
